Converted amounts (≈) assume the structure as drawn.
Key:
[1] = tested on: Staphylococcus haemolyticus 415; assay: broth micro-dilution MIC; type: cell-based
Protocol: (§1) The formula I compounds have in vitro and in vivo activity against Gram-positive pathogenic bacteria. The MIC's were determined using a standard broth micro-dilution assay.

[2] = tested on: Staphylococcus epidermidis 270; assay: broth micro-dilution MIC; type: cell-based
Protocol: as §1

[3] = tested on: Staphylococcus haemolyticus 105; assay: broth micro-dilution MIC; type: cell-based
Protocol: as §1

[4] = tested on: Haemophilus influenzae RD; assay: broth micro-dilution MIC; type: cell-based; settings: Haemophilus influenzae RD
Protocol: as §1

[5] = tested on: Streptococcus pneumoniae P1; assay: broth micro-dilution MIC; type: cell-based
Protocol: as §1

Entercoccus faecium 2041 = assay: broth micro-dilution MIC; type: cell-based; settings: Entercoccus faecium 2041
Protocol: as §1

Entercoccus faecium 180 = assay: broth micro-dilution MIC; type: cell-based; settings: Entercoccus faecium 180
Protocol: as §1

[6] = tested on: Enterococcus gallinarum 245; assay: broth micro-dilution MIC; type: cell-based; settings: Enterococcus gallinarum 245
Protocol: as §1

[7] = tested on: Staphylococcus aureus S13E; type: cell-based
Protocol: (§2) The MIC's were determined using a standard broth micro-dilution assay.

[8] = tested on: Staphylococcus aureus SA1199B; type: cell-based
Protocol: as §2

[9] = tested on: vancomycin-susceptible enterococci; assay: broth micro-dilution, mean geometric MIC; type: cell-based, Enterococcus faecium and Enterococcus faecalis; settings: enterococci, 24-hour incubation
[10] = tested on: vancomycin-resistant enterococci; assay: broth micro-dilution, mean geometric MIC; type: cell-based, Enterococcus faecium and Enterococcus faecalis; settings: enterococci, 24-hour incubation
[11] = tested on: Streptococcus pyogenes C203; assay: broth micro-dilution MIC; type: cell-based
Protocol: as §2

[12] = tested on: Staphylococcus aureus 491; assay: broth micro-dilution MIC; type: cell-based
Protocol: as §2

[13] = tested on: Staphylococcus aureus SA1199; assay: broth micro-dilution MIC; type: cell-based
Protocol: as §2

[14] = tested on: Entercoccus faecium 180-1; assay: broth micro-dilution MIC; type: cell-based
Protocol: as §2

[15] = tested on: Staphylococcus aureus 489; assay: broth micro-dilution MIC; type: cell-based
Protocol: as §2

[16] = tested on: Staphylococcus aureus X778; assay: broth micro-dilution MIC; type: cell-based
Protocol: as §2

Entercoccus faecium 276 = assay: broth micro-dilution MIC; type: cell-based
Protocol: as §2

[17] = tested on: Staphylococcus aureus 446; assay: broth micro-dilution MIC; type: cell-based
Protocol: as §2

[18] = tested on: Staphylococcus aureus 447; assay: broth micro-dilution MIC; type: cell-based
Protocol: as §2

[19] = tested on: Staphylococcus aureus SA1199A; assay: broth micro-dilution MIC; type: cell-based
Protocol: as §2

[20] = tested on: Staphylococcus aureus X400; assay: broth micro-dilution MIC; type: cell-based
Protocol: as §2

Structure (SMILES) | MIC [1] | MIC [2] | MIC [3] | MIC [4] | MIC [5] | MIC (Entercoccus faecium 2041) | MIC (Entercoccus faecium 180) | MIC [6] | MIC [7] | MIC [8] | mean geometric MIC, Vancomycin Sensitive Strains [9] | mean geometric MIC, Vancomycin Resistant Strains [10] | MIC [12] | MIC [13] | MIC [15] | MIC [16] | MIC (Entercoccus faecium 276) | MIC [17] | MIC [18] | MIC [20] | further results
CNC(CC(C)C)C(=O)NC1C(=O)NC(CC(N)=O)C(=O)NC2C(=O)NC3C(=O)NC(C(=O)NC(C(=O)O)c4cc(O)cc(O)c4-c4cc3ccc4O)C(OC3CC(C)(N)C(O)C(C)O3)c3ccc(c(Cl)c3)Oc3cc2cc(c3OC2OC(CO)C(O)C(O)C2OC2CC(C)(NCc3c4ccccc4c(C)c4ccccc34)C(O)C(C)O2)Oc2ccc(cc2Cl)C1O (stereo not drawn) [Compound 17] | 8 µg/mL (≈ 4.45 µM) | 4 µg/mL (≈ 2.23 µM) | 8 µg/mL (≈ 4.45 µM) | 32 µg/mL (≈ 17.8 µM) | ≤ 0.06 µg/mL | 0.25 µg/mL (≈ 0.139 µM) | 2 µg/mL (≈ 1.11 µM) | 0.5 µg/mL (≈ 0.278 µM) | 1 µg/mL (≈ 0.557 µM) | 1 µg/mL (≈ 0.557 µM) | 0.38 µg/mL | 9.5 µg/mL | 2 µg/mL (≈ 1.11 µM) | 4 µg/mL (≈ 2.23 µM) | 1 µg/mL (≈ 0.557 µM) | 0.5 µg/mL (≈ 0.278 µM) | 0.5 µg/mL (≈ 0.278 µM) | 2 µg/mL (≈ 1.11 µM) | 8 µg/mL (≈ 4.45 µM) | 0.5 µg/mL (≈ 0.278 µM) | MIC [11]: ≤ 0.06 µg/mL; MIC [14]: ≤ 0.06 µg/mL; MIC [19]: ≤ 0.06 µg/mL
CNC(CC(C)C)C(=O)NC1C(=O)NC(CC(N)=O)C(=O)NC2C(=O)NC3C(=O)NC(C(=O)NC(C(=O)O)c4cc(O)cc(O)c4-c4cc3ccc4O)C(OC3CC(C)(N)C(O)C(C)O3)c3ccc(c(Cl)c3)Oc3cc2cc(c3OC2OC(CO)C(O)C(O)C2OC2CC(C)(NCc3ccc(Oc4ccc(Cl)c(Cl)c4)cc3)C(O)C(C)O2)Oc2ccc(cc2Cl)C1O (stereo not drawn) [Compound 81] | 4 µg/mL (≈ 2.17 µM) | 1 µg/mL (≈ 0.542 µM) | 1 µg/mL (≈ 0.542 µM) | 16 µg/mL (≈ 8.68 µM) | ≤ 0.06 µg/mL | ≤ 0.06 µg/mL | ≤ 0.06 µg/mL | 0.25 µg/mL (≈ 0.136 µM) | 0.5 µg/mL (≈ 0.271 µM) | 1 µg/mL (≈ 0.542 µM) | 0.042 µg/mL | 1.0 µg/mL | 1 µg/mL (≈ 0.542 µM) | 2 µg/mL (≈ 1.08 µM) | 2 µg/mL (≈ 1.08 µM) | 1 µg/mL (≈ 0.542 µM) | ≤ 0.06 µg/mL | 2 µg/mL (≈ 1.08 µM) | 2 µg/mL (≈ 1.08 µM) | 1 µg/mL (≈ 0.542 µM) | MIC [11]: ≤ 0.06 µg/mL; MIC [19]: 0.5 µg/mL (≈ 0.271 µM)
CNC(CC(C)C)C(=O)NC1C(=O)NC(CC(N)=O)C(=O)NC2C(=O)NC3C(=O)NC(C(=O)NC(C(=O)O)c4cc(O)cc(O)c4-c4cc3ccc4O)C(OC3CC(C)(N)C(O)C(C)O3)c3ccc(c(Cl)c3)Oc3cc2cc(c3OC2OC(CO)C(O)C(O)C2OC2CC(C)(NCc3c4c(cc5ccccc35)CCCC4)C(O)C(C)O2)Oc2ccc(cc2Cl)C1O (stereo not drawn) [Compound 156] | 2 µg/mL (≈ 1.12 µM) | 1 µg/mL (≈ 0.56 µM) | 4 µg/mL (≈ 2.24 µM) | 2 µg/mL (≈ 1.12 µM) | ≤ 0.06 µg/mL | 0.5 µg/mL (≈ 0.28 µM) | 1 µg/mL (≈ 0.56 µM) | 2 µg/mL (≈ 1.12 µM) | 1 µg/mL (≈ 0.56 µM) | 0.5 µg/mL (≈ 0.28 µM) | 0.17 µg/mL | 5.7 µg/mL | 1 µg/mL (≈ 0.56 µM) | 1 µg/mL (≈ 0.56 µM) | 1 µg/mL (≈ 0.56 µM) | 1 µg/mL (≈ 0.56 µM) | 2 µg/mL (≈ 1.12 µM) | 2 µg/mL (≈ 1.12 µM) | 1 µg/mL (≈ 0.56 µM) | 2 µg/mL (≈ 1.12 µM) | MIC [11]: ≤ 0.06 µg/mL; MIC [14]: ≤ 0.06 µg/mL; MIC [19]: ≤ 0.06 µg/mL
CNC(CC(C)C)C(=O)NC1C(=O)NC(CC(N)=O)C(=O)NC2C(=O)NC3C(=O)NC(C(=O)NC(C(=O)O)c4cc(O)cc(O)c4-c4cc3ccc4O)C(OC3CC(C)(N)C(O)C(C)O3)c3ccc(c(Cl)c3)Oc3cc2cc(c3OC2OC(CO)C(O)C(O)C2OC2CC(C)(NCCCCc3ccc(OC)cc3)C(O)C(C)O2)Oc2ccc(cc2Cl)C1O (stereo not drawn) [Compound 172] | 2 µg/mL (≈ 1.14 µM) | 0.5 µg/mL (≈ 0.285 µM) | 0.25 µg/mL (≈ 0.142 µM) | 32 µg/mL (≈ 18.2 µM) | ≤ 0.06 µg/mL | ≤ 0.06 µg/mL | 0.5 µg/mL (≈ 0.285 µM) | 2 µg/mL (≈ 1.14 µM) | ≤ 0.06 µg/mL | ≤ 0.06 µg/mL | 0.13 µg/mL | 3.4 µg/mL | 0.5 µg/mL (≈ 0.285 µM) | 1 µg/mL (≈ 0.57 µM) | 0.5 µg/mL (≈ 0.285 µM) | 2 µg/mL (≈ 1.14 µM) | 0.125 µg/mL (≈ 0.0712 µM) | 4 µg/mL (≈ 2.28 µM) | 0.5 µg/mL (≈ 0.285 µM) | 0.5 µg/mL (≈ 0.285 µM) | MIC [11]: ≤ 0.06 µg/mL; MIC [14]: ≤ 0.06 µg/mL; MIC [19]: ≤ 0.06 µg/mL
CC#CCCCCCCCCCCNC1(C)CC(OC2C(Oc3c4cc5cc3Oc3ccc(cc3Cl)C(OC3CC(C)(N)C(O)C(C)O3)C3NC(=O)C(NC(=O)C5NC(=O)C(CC(N)=O)NC(=O)C(NC(=O)C(CC(C)C)NC)C(O)c5ccc(c(Cl)c5)O4)c4ccc(O)c(c4)-c4c(O)cc(O)cc4C(C(=O)O)NC3=O)OC(CO)C(O)C2O)OC(C)C1O (stereo not drawn) [Compound 199] | 4 µg/mL (≈ 2.26 µM) | 0.5 µg/mL (≈ 0.282 µM) | 2 µg/mL (≈ 1.13 µM) | 32 µg/mL (≈ 18.1 µM) | ≤ 0.06 µg/mL | ≤ 0.06 µg/mL | 0.5 µg/mL (≈ 0.282 µM) | 4 µg/mL (≈ 2.26 µM) | 0.5 µg/mL (≈ 0.282 µM) | 1 µg/mL (≈ 0.565 µM) | 0.036 µg/mL | 1.4 µg/mL | 0.5 µg/mL (≈ 0.282 µM) | 1 µg/mL (≈ 0.565 µM) | 2 µg/mL (≈ 1.13 µM) | 1 µg/mL (≈ 0.565 µM) | 1 µg/mL (≈ 0.565 µM) | 0.5 µg/mL (≈ 0.282 µM) | 1 µg/mL (≈ 0.565 µM) | 2 µg/mL (≈ 1.13 µM) | MIC [11]: ≤ 0.06 µg/mL; MIC [14]: ≤ 0.06 µg/mL
C=CCCCCCCCCNC1(C)CC(OC2C(Oc3c4cc5cc3Oc3ccc(cc3Cl)C(OC3CC(C)(N)C(O)C(C)O3)C3NC(=O)C(NC(=O)C5NC(=O)C(CC(N)=O)NC(=O)C(NC(=O)C(CC(C)C)NC)C(O)c5ccc(c(Cl)c5)O4)c4ccc(O)c(c4)-c4c(O)cc(O)cc4C(C(=O)O)NC3=O)OC(CO)C(O)C2O)OC(C)C1O (stereo not drawn) [Compound 214] | 2 µg/mL (≈ 1.16 µM) | ≤ 0.06 µg/mL | 1 µg/mL (≈ 0.578 µM) | 32 µg/mL (≈ 18.5 µM) | ≤ 0.06 µg/mL | 0.125 µg/mL (≈ 0.0722 µM) | 0.25 µg/mL (≈ 0.144 µM) | 2 µg/mL (≈ 1.16 µM) | 1 µg/mL (≈ 0.578 µM) | 1 µg/mL (≈ 0.578 µM) | 0.024 µg/mL | 0.71 µg/mL | 1 µg/mL (≈ 0.578 µM) | 0.5 µg/mL (≈ 0.289 µM) | 1 µg/mL (≈ 0.578 µM) | 1 µg/mL (≈ 0.578 µM) | 0.25 µg/mL (≈ 0.144 µM) | 1 µg/mL (≈ 0.578 µM) | 2 µg/mL (≈ 1.16 µM) | 0.5 µg/mL (≈ 0.289 µM) | MIC [14]: ≤ 0.06 µg/mL; MIC [19]: 0.5 µg/mL (≈ 0.289 µM)

Source: patent US5840684A, “Glycopeptide antibiotic derivatives” (Eli Lilly and Company, priority 1995, dated 1998)
